Test results from ChEMBL document CHEMBL1949505, “Total synthesis and structure-activity relationships of new echinocandin-like antifungal cyclolipohexapeptides” (2012).
Converted amounts (≈) assume the structure as drawn. Bridge positions count the residues as written; N and C are the ends. Square brackets hold non-standard residues; d marks the D form. Peptide text beside a SMILES is read from it. * marks the point of attachment. pTerphenylCO(4''-OnC5H11) = CCCCCOc1ccc(-c2ccc(-c3ccc(C(=O)*)cc3)cc2)cc1; 2Naphthoyl(6-heptyloxy) = CCCCCCCOc1ccc2cc(C(=O)*)ccc2c1; 2Naphthoyl(6-octyloxy) = CCCCCCCCOc1ccc2cc(C(=O)*)ccc2c1; X2 = CCCCCCCOc1ccc(-c2ccc(-c3ccc(C(=O)*)cc3)cc2)cc1; X1 = CCCOc1ccc(-c2ccc(-c3ccc(C(=O)*)cc3)cc2)cc1; Pro(4S-NH2) = N[C@@H]1CN[C@H](C(=O)O)C1; hTyr = N[C@@H](CCc1ccc(O)cc1)C(=O)O; Orn = NCCC[C@H](N)C(=O)O

Columns and labels:
Assay type in all cases: functional
Candida albicans = assay: Antifungal activity against Candida albicans after 24 hrs by serial dilution method
Candida tropicalis = assay: Antifungal activity against Candida tropicalis after 24 hrs by serial dilution method
Candida parapsilosis = assay: Antifungal activity against Candida parapsilosis after 24 hrs by serial dilution method; details: Lodderomyces parapsilosis
Pichia kudriavzevii = assay: Antifungal activity against Candida krusei after 24 hrs by serial dilution method
Cryptococcus neoformans = assay: Antifungal activity against Cryptococcus neoformans after 72 hrs by serial dilution method
Aspergillus fumigatus = assay: Antifungal activity against Aspergillus fumigatus after 7 days by serial dilution method; details: 168 h
Trichophyton rubrum = assay: Antifungal activity against Trichophyton rubrum after 7 days by serial dilution method; details: 168 h

SMILES | MIC80 (Candida albicans) | MIC80 (Candida tropicalis) | MIC80 (Candida parapsilosis) | MIC80 (Pichia kudriavzevii) | MIC80 (Cryptococcus neoformans) | MIC80 (Aspergillus fumigatus) | MIC80 (Trichophyton rubrum)
CCCCCOc1ccc(-c2ccc(-c3ccc(C(=O)N[C@H]4CCCNC(=O)[C@@H]5C[C@H](N)CN5C(=O)[C@H](CCCCN)NC(=O)[C@H](CCc5ccc(O)cc5)NC(=O)[C@@H]5CCCN5C(=O)[C@H]([C@@H](C)O)NC4=O)cc3)cc2)cc1.Cc1ccc(S(=O)(=O)O)cc1 ({pTerphenylCO(4''-OnC5H11)}-[Orn]TP[hTyr]K[Pro(4S-NH2)]; lactam 1-C) | 0.5 µg/mL | 8 µg/mL | 2 µg/mL | 1 µg/mL | 16 µg/mL | 1 µg/mL | 32 µg/mL
CCCCCCCOc1ccc(-c2ccc(-c3ccc(C(=O)N[C@H]4CCCNC(=O)[C@@H]5C[C@H](N)CN5C(=O)[C@H](CCCN)NC(=O)[C@H](CCc5ccc(O)cc5)NC(=O)[C@@H]5CCCN5C(=O)[C@H]([C@@H](C)O)NC4=O)cc3)cc2)cc1.Cc1ccc(S(=O)(=O)O)cc1 (X2-[Orn]TP[hTyr][Orn][Pro(4S-NH2)]; lactam 1-C) | 0.25 µg/mL | 8 µg/mL | 2 µg/mL | 1 µg/mL | 16 µg/mL | 0.5 µg/mL | 16 µg/mL
CCCCCCCOc1ccc2cc(C(=O)N[C@H]3CCCNC(=O)[C@@H]4C[C@H](N)CN4C(=O)[C@H]([C@H](C)O)NC(=O)[C@H](CCc4ccc(O)cc4)NC(=O)[C@@H]4C[C@H](N)CN4C(=O)[C@H]([C@@H](C)O)NC3=O)ccc2c1.Cc1ccc(S(=O)(=O)O)cc1 | 2 µg/mL | 64 µg/mL | 32 µg/mL | 8 µg/mL | > 64 µg/mL | > 64 µg/mL | > 64 µg/mL
CC[C@H](C)C[C@H](C)CCCCCCCCC(=O)N[C@H]1C[C@@H](O)[C@@H](NCCN)NC(=O)[C@@H]2[C@@H](O)CCN2C(=O)[C@H]([C@H](O)CCN)NC(=O)[C@H]([C@H](O)[C@@H](O)c2ccc(O)cc2)NC(=O)[C@@H]2C[C@@H](O)CN2C(=O)[C@H]([C@@H](C)O)NC1=O [CASPOFUNGIN] | 0.5 µg/mL (≈ 0.457 µM) | 4 µg/mL (≈ 3.66 µM) | 1 µg/mL (≈ 0.915 µM) | 0.25 µg/mL (≈ 0.229 µM) | 16 µg/mL (≈ 14.6 µM) | 1 µg/mL (≈ 0.915 µM) | 16 µg/mL (≈ 14.6 µM)
CCCOc1ccc(-c2ccc(-c3ccc(C(=O)N[C@H]4CCCNC(=O)[C@@H]5C[C@H](N)CN5C(=O)[C@H](CCCCN)NC(=O)[C@H](CCc5ccc(O)cc5)NC(=O)[C@@H]5CCCN5C(=O)[C@H](C(C)C)NC4=O)cc3)cc2)cc1.Cc1ccc(S(=O)(=O)O)cc1 (X1-[Orn]VP[hTyr]K[Pro(4S-NH2)]; lactam 1-C) | 0.5 µg/mL | 16 µg/mL | 4 µg/mL | 2 µg/mL | 32 µg/mL | 0.25 µg/mL | 16 µg/mL
CCCCCOc1ccc2cc(C(=O)N[C@H]3CCCNC(=O)[C@@H]4C[C@H](N)CN4C(=O)[C@H]([C@H](C)O)NC(=O)[C@H](CCc4ccc(O)cc4)NC(=O)[C@@H]4C[C@H](N)CN4C(=O)[C@H]([C@@H](C)O)NC3=O)ccc2c1.Cc1ccc(S(=O)(=O)O)cc1 | 2 µg/mL | > 64 µg/mL | 32 µg/mL | 8 µg/mL | > 64 µg/mL | > 64 µg/mL | > 64 µg/mL
CCCOc1ccc(-c2ccc(-c3ccc(C(=O)N[C@H]4CCCNC(=O)[C@@H]5C[C@H](N)CN5C(=O)[C@H](CCCN)NC(=O)[C@H](CCc5ccc(O)cc5)NC(=O)[C@@H]5CCCN5C(=O)[C@H](C(C)C)NC4=O)cc3)cc2)cc1.Cc1ccc(S(=O)(=O)O)cc1 (X1-[Orn]VP[hTyr][Orn][Pro(4S-NH2)]; lactam 1-C) | 0.5 µg/mL | 8 µg/mL | 4 µg/mL | 2 µg/mL | 32 µg/mL | 0.5 µg/mL | 16 µg/mL
CCCCCCOc1ccc2cc(C(=O)N[C@H]3CCCNC(=O)[C@@H]4C[C@H](N)CN4C(=O)[C@H]([C@H](C)O)NC(=O)[C@H](CCc4ccc(O)cc4)NC(=O)[C@@H]4C[C@H](N)CN4C(=O)[C@H]([C@@H](C)O)NC3=O)ccc2c1.Cc1ccc(S(=O)(=O)O)cc1 | 2 µg/mL | 64 µg/mL | 32 µg/mL | 2 µg/mL | > 64 µg/mL | > 64 µg/mL | > 64 µg/mL
CCCCCOc1ccc(-c2ccc(-c3ccc(C(=O)N[C@H]4CCCNC(=O)[C@@H]5C[C@H](N)CN5C(=O)[C@H](CCCCN)NC(=O)[C@H](CCc5ccc(O)cc5)NC(=O)[C@@H]5CCCN5C(=O)[C@H](C(C)C)NC4=O)cc3)cc2)cc1.Cc1ccc(S(=O)(=O)O)cc1 ({pTerphenylCO(4''-OnC5H11)}-[Orn]VP[hTyr]K[Pro(4S-NH2)]; lactam 1-C) | 1 µg/mL | 16 µg/mL | 4 µg/mL | 2 µg/mL | 32 µg/mL | 1 µg/mL | 32 µg/mL
CCCOc1ccc(-c2ccc(-c3ccc(C(=O)N[C@H]4CCCNC(=O)[C@@H]5C[C@H](N)CN5C(=O)[C@H](CCCCN)NC(=O)[C@H](CCc5ccc(O)cc5)NC(=O)[C@@H]5CCCN5C(=O)[C@H]([C@@H](C)O)NC4=O)cc3)cc2)cc1.Cc1ccc(S(=O)(=O)O)cc1 (X1-[Orn]TP[hTyr]K[Pro(4S-NH2)]; lactam 1-C) | 0.25 µg/mL | 16 µg/mL | 2 µg/mL | 1 µg/mL | 16 µg/mL | 1 µg/mL | 64 µg/mL
CCCCCOc1ccc(-c2ccc(-c3ccc(C(=O)N[C@H]4CCCNC(=O)[C@@H]5C[C@H](N)CN5C(=O)[C@H](CCCN)NC(=O)[C@H](CCc5ccc(O)cc5)NC(=O)[C@@H]5CCCN5C(=O)[C@H](C(C)C)NC4=O)cc3)cc2)cc1.Cc1ccc(S(=O)(=O)O)cc1 ({pTerphenylCO(4''-OnC5H11)}-[Orn]VP[hTyr][Orn][Pro(4S-NH2)]; lactam 1-C) | 1 µg/mL | 8 µg/mL | 4 µg/mL | 2 µg/mL | 32 µg/mL | 0.5 µg/mL | 32 µg/mL
CCCCCOc1ccc(-c2ccc(-c3ccc(C(=O)N[C@H]4CCCNC(=O)[C@@H]5C[C@H](N)CN5C(=O)[C@H](CCCN)NC(=O)[C@H](CCc5ccc(O)cc5)NC(=O)[C@@H]5CCCN5C(=O)[C@H]([C@@H](C)O)NC4=O)cc3)cc2)cc1.Cc1ccc(S(=O)(=O)O)cc1 ({pTerphenylCO(4''-OnC5H11)}-[Orn]TP[hTyr][Orn][Pro(4S-NH2)]; lactam 1-C) | 0.25 µg/mL | 4 µg/mL | 8 µg/mL | 0.5 µg/mL | 64 µg/mL | 1 µg/mL | 64 µg/mL

Next, values leading:

MIC80 (Candida albicans) | MIC80 (Candida tropicalis) | MIC80 (Candida parapsilosis) | MIC80 (Pichia kudriavzevii) | MIC80 (Cryptococcus neoformans) | MIC80 (Aspergillus fumigatus) | MIC80 (Trichophyton rubrum) | SMILES
> 64 µg/mL | 32 µg/mL | 32 µg/mL | 8 µg/mL | > 64 µg/mL | > 64 µg/mL | 64 µg/mL | CCCCCCCOc1ccc2cc(C(=O)N[C@H]3CCCNC(=O)[C@@H]4C[C@H](N)CN4C(=O)[C@H]([C@H](C)O)NC(=O)[C@H](CCc4ccc(O)cc4)NC(=O)[C@@H]4C[C@H](N)CN4C(=O)[C@H](CO)NC3=O)ccc2c1.Cc1ccc(S(=O)(=O)O)cc1
0.25 µg/mL | 32 µg/mL | 4 µg/mL | 1 µg/mL | 32 µg/mL | 1 µg/mL | 32 µg/mL | CCCCCCCOc1ccc2cc(C(=O)N[C@H]3CCCNC(=O)[C@@H]4C[C@H](N)CN4C(=O)[C@H](CCCN)NC(=O)[C@H](CCc4ccc(O)cc4)NC(=O)[C@@H]4CCCN4C(=O)[C@H]([C@@H](C)O)NC3=O)ccc2c1.Cc1ccc(S(=O)(=O)O)cc1 ({2Naphthoyl(6-heptyloxy)}-[Orn]TP[hTyr][Orn][Pro(4S-NH2)]; lactam 1-C)
1 µg/mL | 32 µg/mL | 4 µg/mL | 2 µg/mL | 32 µg/mL | 0.5 µg/mL | 32 µg/mL | CCCCCCCOc1ccc2cc(C(=O)N[C@H]3CCCNC(=O)[C@@H]4C[C@H](N)CN4C(=O)[C@H](CCCN)NC(=O)[C@H](CCc4ccc(O)cc4)NC(=O)[C@@H]4CCCN4C(=O)[C@H](C(C)C)NC3=O)ccc2c1.Cc1ccc(S(=O)(=O)O)cc1 ({2Naphthoyl(6-heptyloxy)}-[Orn]VP[hTyr][Orn][Pro(4S-NH2)]; lactam 1-C)
0.5 µg/mL | 32 µg/mL | 4 µg/mL | 2 µg/mL | 32 µg/mL | 1 µg/mL | 32 µg/mL | CCCCCCCOc1ccc2cc(C(=O)N[C@H]3CCCNC(=O)[C@@H]4C[C@H](N)CN4C(=O)[C@H](CCCCN)NC(=O)[C@H](CCc4ccc(O)cc4)NC(=O)[C@@H]4CCCN4C(=O)[C@H](C(C)C)NC3=O)ccc2c1.Cc1ccc(S(=O)(=O)O)cc1 ({2Naphthoyl(6-heptyloxy)}-[Orn]VP[hTyr]K[Pro(4S-NH2)]; lactam 1-C)
0.5 µg/mL | 32 µg/mL | 4 µg/mL | 1 µg/mL | 32 µg/mL | 1 µg/mL | 32 µg/mL | CCCCCCCCOc1ccc2cc(C(=O)N[C@H]3CCCNC(=O)[C@@H]4C[C@H](N)CN4C(=O)[C@H](CCCCN)NC(=O)[C@H](CCc4ccc(O)cc4)NC(=O)[C@@H]4CCCN4C(=O)[C@H]([C@@H](C)O)NC3=O)ccc2c1.Cc1ccc(S(=O)(=O)O)cc1 ({2Naphthoyl(6-octyloxy)}-[Orn]TP[hTyr]K[Pro(4S-NH2)]; lactam 1-C)
0.5 µg/mL | 16 µg/mL | 2 µg/mL | 2 µg/mL | 16 µg/mL | 1 µg/mL | 16 µg/mL | CCCCCCCCOc1ccc2cc(C(=O)N[C@H]3CCCNC(=O)[C@@H]4C[C@H](N)CN4C(=O)[C@H](CCCN)NC(=O)[C@H](CCc4ccc(O)cc4)NC(=O)[C@@H]4CCCN4C(=O)[C@H](C(C)C)NC3=O)ccc2c1.Cc1ccc(S(=O)(=O)O)cc1 ({2Naphthoyl(6-octyloxy)}-[Orn]VP[hTyr][Orn][Pro(4S-NH2)]; lactam 1-C)
